The text below walks through data of patent US20230272014A1, “COMPOSITION OF NANOPARTICLES AS CARRIER FOR HPV-DERIVED IMMUNOGENIC FRAGMENTS” (priority 2020, published 2023).

One series relates to DC2.4 cells. As to the kind of experiment: MHC class I cross presentation of OVA257-264 in DC2.4 cells. Type of series: cell-based, murine. The settings on record: 6 h incubation, 5 μM, 25-D1.16 antibody, flow cytometry, with or without SiO2—PO3H2. As for the experimental part:
After an incubation time of 6 h, the test substances were removed by washing with phosphate-buffered saline (PBS). In the next step, the cells were incubated with CD16/CD32 antibody in order to block the non-specific binding of the detection antibody to the Fc (Fragment, crystallizable) receptor of the cells. After incubation with 25-D1.16 antibody, the amount of cross-presented OVA257-264 was quantified by flow cytometry. FIG. 16: […] Quantification was carried out by flow cytometry after labeling with 25-D1.16 detection antibody.

Series [1] can be described thus: Poly(I:C) loading capacity of SiO2-Arg nanoparticles (DLS, zeta potential). Format: physicochemical. The settings on record: SiO2-Arg loaded with poly(I:C) LMW, 0.9% NaCl.
A further series concerns influenza A virus PR8/34. Format: in vivo, C57BL/6 mice. The settings on record: s.c. 24 hours before intranasal five-fold LD50 influenza A PR8/34.

“SIINFEKL (Ovalbumin aa 258-265; listed as Gallus gallus) [OVA257-264]”: the “OVA257-264 MHC class I presentation” value in the series with DC2.4 cells is “presented in significant amounts”.

In series [1], “polyinosinic:polycytidylic acid [poly(I:C)]” registered a PDI of 0.557, a Peak of 12.69 nm and a Z ave of 33.83 nm. In addition, in the series with influenza A virus PR8/34, the “improvement compared to the placebo group” value was “does not show any statistically significant improvement”.
